# Literature values as cited in patent publication US20170071966A1, “PHARMACEUTICAL COMPOSITION” (priority 2014, published 2017).
# Like-named read-outs stand apart in the source and are kept apart here.
# Columns and labels:
# [1] = mice, drinking water 10, 20 and 30 mg/ml (4000, 8000, 12000 mg/kg body weight), 19-day experiment
# [2] = a few subjects, gram quantities
# [3] = gerbils, 1% in the food for 8 weeks
# [4] = not given; remark: listed apart in the source
# [5] = test system: mice exposed to whole body radiation; conditions: beta-carotene alone, given orally before or after whole body radiation
# [6] = Zhang et al. 1994
# [7] = Nakane et al. 1996
# [8] = Senel et al. 1994
smiles,measurement,setting,value
"Nc1nc2c(ncn2[C@@H]2O[C@H](COP(=O)(O)O)[C@@H](O)[C@H]2O)c(=O)[nH]1 [guanosine monophosphate, Guanosine Monophosphate]",water solubility,,highly water-soluble
same,ill effects,[1],no obvious ill effects
same,ill effects,[2],no known ill effects
Nc1nc2c(ncn2[C@@H]2O[C@H](CO)[C@@H](O)[C@H]2O)c(=O)[nH]1 [guanosine],deleterious effects,[3],no obvious deleterious effects
same,water solubility,,slightly water-soluble
CC1=C(/C=C/C(C)=C/C=C/C(C)=C/C=C/C=C(C)/C=C/C=C(C)/C=C/C2=C(C)CCCC2(C)C)C(C)(C)CCC1 [beta-carotene],risk of hypervitaminosis A,[4]; high beta-carotene doses,no risk of hypervitaminosis A
same,long-term safety,"[4]; patients with erythropoietic protoporphyria, 180 to 300 mg per day",safe at the highest daily dose for a lifetime
same,acute toxicity,[4]; surveillance over the decades it was a prescription drug,no known acute toxicity
same,survival from radiation,[5],enhance survival
"C[C@H](CCC(=O)[O-])[C@H]1CC[C@H]2[C@@H]3[C@H](O)C[C@@H]4C[C@H](O)CC[C@]4(C)[C@H]3C[C@H](O)[C@]12C.[Na+] [sodium cholate, Sodium cholate]",buccal absorption of insulin,[6],increased the buccal absorption
same,absorption of luteinizing hormone releasing hormone,[7],increased the absorption
same,increase of mucosal permeability of fluorescein isothiocyanate,[8],100-200 times
